From patent US9763991B2, “Composition for the treatment of neurobehavioral disorders” (Cannabis Science International Holding B.V., priority 2013, dated 2017)

Assays:
C57BL6 mice [1] = assay: Sleep monitoring after oral dosing (gavage) of Cannabinol in olive oil; format: in vivo, mouse; settings: all 5 doses (0.01-0.5 mg/Kg) by oral gavage in olive oil, single administration at 3 consecutive days, vs pure olive oil
Description: (§1) The experiment is designed to test a range of concentrations around the equivalent previously tested in humans for single-dose kinetics. Animal experiments were performed following the directive 2010/63/EU on the protection of animals used for scientific purposes.
(§2) 6 groups of 5-6 male C57BL6 of approximately 28 g body weight (range 27-30 g) with the use of one cage for 3 mice: Group 0: Pure Olive Oil, Group 1: CBN at 0.01 mg/Kg body weight, Group 2: CBN at 0.05 mg/Kg body weight, Group 3: CBN at 0.1 mg/Kg body weight, Group 4: CBN at 0.25 mg/Kg body weight and Group 5: CBN at 0.50 mg/Kg body weight
Solutions (named CBN 0, CBN 1, CBN 2, CBN 3, CBN 4, CBN 5, Pure Olive Oil) having different cannabinol concentrations dissolved in olive oil were prepared in sterile conditions, under a laminar flood hood. Pure olive oil was used as a negative control.
The volume that can be administered to the animal should not exceed 10 ml/kg. For a mouse of 20 g the maximum volume corresponds to 0.2 ml. For this procedure a volume of 0.1 ml will be used (half of the maximum volume). 1 ml of each stock solution (cannabinol, CBN 1-5 and pure olive oil, POO) was dispensed into Falcon vials. Prior to the administration, the weight of each mouse was recorded and the appropriate amount of cannabinol solution was determined. […]

C57BL6 mice [2] = assay: Safety data, body weight and organ weight after oral dosing (gavage) of Cannabinol; format: in vivo, mouse
Description: as §1, §2
The volume that can be administered to the animal should not exceed 10 ml/kg. For a mouse of 20 g the maximum volume corresponds to 0.2 ml. For this procedure a volume of 0.1 ml will be used (half of the maximum volume). 1 ml of each stock solution (cannabinol, CBN 1-5 and pure olive oil, POO) was dispensed into Falcon vials. Prior to the administration, the weight of each mouse was recorded and the appropriate amount of cannabinol solution was determined. For the POO group always 0.1 ml was dispensed in 6 an eppendorf vessel, for the other experimental groups transfer the amounts of CBN 1-5 and POO according to table 2 were used in an eppendorf vial. The amounts to be administered were adjusted depending on mouse group and individual weights.
Monitor the animal for potential complications: Esophagitis (inflammation of the oesophagus), perforation of the oesophagus or trachea, damage to the cardiac sphincter (upper stomach sphincter) insertion of needle and solution into the lungs, lung perforation, damage to the oral cavity, aspiration of solution into the lungs from regurgitation, traumatic injuries related to improper restrain.
The mean weights (and standard deviations) of spleen, liver and kidney from all mice groups at sacrifice are monitored.

CCCCCc1cc(O)c2c(c1)OC(C)(C)c1ccc(C)cc1-2 [Cannabinol]
number of mice sleeping 30 minutes after administration (C57BL6 mice [1]): increased significantly | aggressive behaviour and clinical alterations (tremors) (C57BL6 mice [2]; 0.01-0.5 mg/Kg daily by oral gavage, male C57BL6 mice): No presence of aggressive behaviour, neither evident clinical alterations | liver and kidney weights at sacrifice (C57BL6 mice [2]; among experimental groups, 0.01-0.5 mg/Kg oral): No significant changes | body weight change (C57BL6 mice [2]; within experimental groups with time or among groups at fixed time, 0.01-0.5 mg/Kg oral): No significant changes
